Columns and labels:
[1] = tested on: PPM1D; assay: Western blot of PPM1D expression; assay type: cell-based; settings: 25 μM GSK2830371; 24 hours
Procedure: (§1) Protein samples were prepared with cells washed twice with PBS and lysed in modified Laemmli buffer (Laemmli, 1970) (1% w/v SDS, 10% w/v glycerol, 100 mM Tris pH 7.2, protease (complete Mini, Roche) and phosphatase (PhosSTOP, Roche) inhibitors). Following a brief sonication (2.5W, 5 sec) and heat denaturation (90° C., 5 min), total protein concentration in whole cell lysates was measured by a BCA Protein Assay Kit (Pierce, Thermo Fisher Scientific). 20 μg of protein per sample was resolved by SDS-PAGE and transferred onto a 0.45 μm PVDF membrane (0.2 μm for ATF3 detection). Membranes were incubated in blocking buffer (5% fat-free milk in wash buffer—20 mM Tris pH 7.6, 150 mM NaCl, 0.2% Tween 20) for an hour at RT and o/n at 4° C. with the primary antibody diluted in a fresh blocking buffer. Next day membranes were washed three times for 10 min in the wash buffer, incubated with HRP-conjugated secondary antibody for an hour at RT, and washed again three times in the wash buffer. SuperSignal West Pico Plus Chemiluminescence Substrate (Pierce) was used for detection and digital images were acquired using an ImageQuant LAS 4000 (GE Healthcare Life Sciences).

[2] = tested on: p53; assay: Western blot of p53 in thyroid carcinoma cells; assay type: cell-based; settings: TPC1 and K1 cells; 10 μM nutlin-3a, 25 μM GSK2830371; 24 hours
Procedure: as §1, with “Following” for “Protein samples were prepared with cells washed twice with PBS and lysed in modified Laemmli buffer (Laemmli, 1970) (1% w/v SDS, 10% w/v glycerol, 100 mM Tris pH 7.2, protease (complete Mini, Roche) and phosphatase (PhosSTOP, Roche) inhibitors). Following”

[3] = tested on: TPC1 cells; assay: Annexin V-FITC/PI apoptosis assay by flow cytometry; assay type: cell-based; settings: 10 μM nutlin-3a, 25 μM GSK2830371, or both, 72 hours
Procedure: (§2) TPC1, K1, HCT116, MCF7, SJSA, and HEK293FT cells were cultivated in RPMI (TPC1, SJSA), DMEM (K1, MCF7, HEK293FT), and McCoy's (HCT116) media (Gibco, Thermo Fisher Scientific) supplemented with 10% fetal bovine serum (Peak Serum) and 1% antibiotic-antimycotic mixture (Gibco). Cells were plated a day before the treatment and maintained in a humidified atmosphere with 5% of CO2 at 37° C. Both TPC1 and K1 lines were gifts from Dr. Rebecca Schweppe, University of Colorado Anschutz Medical Campus (CU-AMC). Cell line identity has been verified by short tandem repeats profiling at the Cell Technologies Shared Resource, CU-AMC. Colorectal cancer organoid cultures (CRC172) were obtained from the Enteroid Stem Cell Core facility at CU-AMC.
(§3) The fraction of apoptotic cells was determined by Annexin V-FITC/PI assay. Briefly, cells harvested by trypsinization were resuspended in Annexin-V binding buffer (10 mM HEPES pH 7.4, 140 mM NaCl, 2.5 mM CaCl2)). Approximately 2*10^5 cells were labeled with Annexin-V-FITC (Invitrogen) and PI (10 μg/ml, Millipore-Sigma) for 15 minutes in the dark before flow cytometric analysis (Accuri C6, Becton Dickinson). To analyze mitochondrial membrane potential (44m) cells were trypsinized and resuspended in cultivation media. An aliquot of approximately 5*10^5 cells per sample was mixed with tetramethylrhodamine, ethyl ester, perchlorate (TMRE, Thermo Fisher, 100 nM final concentration) solution, incubated for 10 minutes in the dark, and analyzed by flow cytometer.

[4] = tested on: K1 cells; assay: as above; assay type: cell-based; settings: 10 μM nutlin-3a, 25 μM GSK2830371, or both, 72 hours
Procedure: as §2, §3

[5] = tested on: TPC1 and HCT116; assay: Polysome profiling (polysome/monosome ratio); assay type: cell-based; settings: 24 hours
Procedure: TPC1 and HCT116 were plated at 6*104/cm2 on 143 cm2 dishes, cultivated o/n, and treated accordingly. Ten minutes before the harvest cultivation media was supplemented with cycloheximide (CHX) at final concentration of 100 μg/ml. Next, cells were washed twice with ice-cold PBS with 100 μg/ml CHX and lysed in polysome preparation lysis buffer (20 mM HEPES pH 7.4, 15 mM MgCl2, 200 mM NaCl, 1% Triton X-100, 100 μg/ml CHX, 2 mM DTT, and 100U SuperaseIN). Lysates were cleared of debris by centrifugation at 20,000g, 4° C. for 10 minutes. Total nucleic acid content in lysates was measured by absorbance at 260 nm and used for sample concentration normalization. Next, 500 μl of the lysate was loaded on 10-60% sucrose gradients in SW41 tubes in lysis buffer lacking Triton X-100. These gradients were prepared using a BioComp system and chilled to 4° C. before use. Samples were ultracentrifuged at 36,000 rpm for 3 hours and 10 min, at 4° C., then samples were fractionated using a BioComp system, monitoring absorbance at 260 nm while collecting fractions of approximately 0.4 ml each.

[6] = tested on: TPC1 cells; assay: RNA-seq transcriptome analysis (DESeq2); assay type: cell-based, Human; settings: for differentially expressed mRNAs versus vehicle: nutlin 10 μM, GSK2830371 25 μM, or both, 24 hours
Procedure: (§4) TPC1 and K1 cells were plated at 2*104/cm2 and treated for 24 hours as indicated. Following the treatment period, cells were washed with ice-cold PBS and lysed in TRI Reagent (Millipore Sigma). Quality of the extracted RNA was assessed by Agilent Bioanalyzer 2100 using RNA 6000 Pico chips (Agilent). Single-end 150 bp sequencing of the poly-A (+)-enriched RNA was carried out on the Illumina HiSeq 4000 platform by the Genomics Core facility at the University of Colorado Anschutz.
(§5) Quality of the sequencing data was analyzed using FASTQC (version 0.11.2, available at the website www.bioinformatics.babraham.ac.uk/projects/fastqc and presence of common sequencing contaminants was assessed by FastQ Screen (v0.4.4) available at the website www.bioinformatics.babraham.ac.uk/projects/fastq_screen/. Bases with low quality (Q<10) were 3′ end trimmed and reads shorter than 30 nt were discarded using the Fastx toolkit (v0.0.13.2). Reads were aligned to a GRCh37/hg19 Human reference using TopHat2 (v2.0.13,-b2-sensitive-keep-fasta-order-no-coverage-search-max-multihits 10-library-type fr-firststrand) (Kim et al., 2013) with the UCSC hg19 GTF annotation file provided in the iGenomes UCSC hg19 bundle available at the website: support.illumina.com/sequencing/sequencing_software/igenome.html. Aligned reads with MAPQ<10 quality were removed using SAMtools (v0.1.19). Alignments were then sorted by coordinates, and duplicates were identified using Picard (v1.129). Quality assessment of final mapped reads was conducted using RSeQC (v2.6) (Wang et al., 2012). Gene-level counts were obtained using HTSeq (v0.6.1) (Anders et al., 2015) with the following options (-stranded=reverse -minaqual=10-type=exon-idattr=gene_id_mode=intersection-nonempty) using the iGenomes UCSC hg19 GTF annotation file. Differential gene expression was evaluated using DESeq2 (version 1.6.3) (Love et al., 2014) in R (version 3.1.0), using q<0.05 (FDR<5%) and fold-change>1.5 (Up) or <1/1.5 (Down) as cutoffs for differentially expressed genes. Genome browser snapshots were generated from bedGraph or tgv files using IGV genome viewer (v2.8.10) (Thorvaldsdottir et al., 2013).

[7] = tested on: K1 cells; assay: RNA-seq transcriptome analysis (DESeq2); assay type: cell-based, Human; settings: for differentially expressed mRNAs versus vehicle: nutlin 10 μM, GSK2830371 25 μM, or both, 24 hours
Procedure: as §4, §5

[8] = tested on: cell viability; assay: Cell viability after single-agent treatment; assay type: cell-based
[9] = tested on: HCT116 xenograft tumors; assay: HCT116 xenograft tumor model; assay type: in vivo; settings: nude mice, 200 mg/kg nelfinavir and/or 200 mg/kg milademetan
Procedure: Athymic nude mice (NU/NU) weighting 20 to 30 grams and being 8-12 weeks of age (Charles River Labs) were housed in cages under standard conditions (22° C., 50% relative humidity, 12-h light/dark cycles) and provided with food and water ad libitum. Next, […] exponentially growing HCT116 cells resuspended in 100 μl Matrigel/PBS (5 mg/ml final) were injected subcutaneously into both flanks. Tumors grew for 10-14 days before treatment initiation. Experimental animals were given 200 mg/kg nelfinavir and/or 200 mg/kg Milademetan (Rain Therapeutics) by oral gavage once daily, 5 days a week. Tested compounds were prepared in a mixture of 2% Klucel (hydroxypropyl cellulose), 0.5% Tween 80, and 35% ethanol. Tumor volumes (v) were estimated daily, 5 days a week using caliper measurements and formula v=(I×w^2)/2, where I represents the greatest length of the tumor and w is tumor width in the perpendicular axis. Average volumes of the right and left flank tumors were used for plotting and calculations. Equal ratios of male and female mice were used in treatment groups (5 males and 5 females). All in vivo experiments were approved by the Institutional Animal Care and Use Committee at the CU-AMC (IACUC protocol 00432).
(§6) After indicated treatments, cells were washed with PBS, total RNA was extracted using Trizol substitute (38% Phenol, saturated, pH 4.3, 0.8 M guanidine thiocyanate, 0.4 M ammonium thiocyanate, 0.1 M sodium acetate, pH 5.0, 5% glycerol), and converted to cDNA with High-Capacity cDNA Reverse Transcription Kit (Thermo Fisher). Next, diluted cDNA was used in quantitative PCR reaction using SYBR Select Master Mix for CFX (Thermo Fisher). Detected mRNA levels were normalized to 18s rRNA values.
Tumors fixed in 4% formaldehyde were transferred to 70% ethanol and embedded in paraffin at the Pathology Shared Resource-Research Histology, University of Colorado Anschutz Medical Campus. Three tumors from each experimental group were sectioned, stained with DAPI and Ki67 primary antibody using Akoya Opal technology (Akoya Biosciences), and scanned at six representative regions with Vectra 3.0 (Akoya Biosciences) at the Human Immune Monitoring Shared Resource (University of Colorado Anschutz). Next, InForm image analysis software (Akoya Biosciences) was used for automated identification of nuclei based on the DAPI signal. Ki67 nuclear fluorescence was outputted for all nuclei.

[10] = tested on: ATF3 and ATF4 gene loci; assay: GRO-seq transcriptional activity at ATF3 and ATF4 gene loci; assay type: cell-based; settings: 60 minutes of nutlin treatment (10 μM); three different cell lines
[11] = tested on: ATF3 and ATF4 mRNA; assay: ATF3 and ATF4 mRNA induction (RNA-seq, Q-RT-PCR); assay type: cell-based, Human; settings: TPC1, K1, and four other cell lines; 24 hours
Description: as §6
as §4, with “Anschutz. […]” for “Anschutz.”

[12] = tested on: diverse cell types; assay: Annexin V-FITC/PI apoptosis assay, elF2α plus MDM2 inhibition; assay type: cell-based
Procedure: as §2
as §3, with “To analyze mitochondrial membrane potential (44m) cells were trypsinized and resuspended in cultivation media.” left out

[13] = FDR<5%, adjusted fold change>1.5

Cc1ncc(Cl)cc1NCc1ccc(C(=O)N[C@@H](CC2CCCC2)C(=O)NC2CC2)s1 [GSK2830371]
PPM1D expression [1]: reduces PPM1D expression | p53 stabilization [2]: does not stabilize p53 | apoptosis (Annexin V-FITC/PI) [3]: does not stabilize p53 or induce apoptosis | apoptosis (Annexin V-FITC/PI) [4]: does not stabilize p53 or induce apoptosis | polysome/monosome ratio [5]: decreases in the polysome/monosome ratio | differentially expressed mRNAs versus vehicle [6]: had little impact on the transcriptome | differentially expressed mRNAs versus vehicle [7]: had little impact on the transcriptome | effects on cell viability when administered alone [8]: limited effects on cell viability

COc1cc(C(=O)O)ccc1NC(=O)[C@@H]1N[C@@H](CC(C)(C)C)[C@](C#N)(c2ccc(Cl)cc2F)[C@H]1c1cccc(Cl)c1F [idasanutlin]
effects on cell viability when administered alone [8]: limited effects on cell viability

CC1(C)CCC2(CC1)N[C@@H](C(=O)N[C@@H]1CC[C@@H](C(N)=O)OC1)[C@H](c1ccnc(Cl)c1F)[C@]21C(=O)Nc2cc(Cl)ccc21 [milademetan]
animal survival (Kaplan Meier; humane endpoint tumor size>1000 mm^3) ([9]; oral gavage): had to be sacrificed at the humane endpoint | tumor growth ([9]; oral gavage once daily, 5 days a week): Tumors continued to grow | effects on cell viability when administered alone [8]: limited effects on cell viability

COc1ccc(C2=N[C@@H](c3ccc(Cl)cc3)[C@@H](c3ccc(Cl)cc3)N2C(=O)N2CCNC(=O)C2)c(OC(C)C)c1 [nutlin-3a]
transactivation of ATF3 (GRO-seq) [10]: rapid transactivation of ATF3 | transactivation of ATF4 (GRO-seq) [10]: not ATF4 | ATF3 induction at the mRNA level [11]: clear induction of ATF3 | ATF4 induction at the mRNA level [11]: not ATF4 | p53 stabilization [2]: stabilizes p53 | apoptosis (Annexin V-FITC/PI) [3]: does not cause p53-dependent apoptosis | apoptosis (Annexin V-FITC/PI) [4]: does not cause p53-dependent apoptosis | polysome/monosome ratio [5]: decreases in the polysome/monosome ratio | genes induced by both nutlin and nutlin+GSK2830371 [6, 13]: 1924 genes | differentially expressed mRNAs versus vehicle [6]: hundreds of mRNAs significantly upregulated or downregulated | genes induced by both nutlin and nutlin+GSK2830371 [7, 13]: 367 genes | differentially expressed mRNAs versus vehicle [7]: hundreds of mRNAs significantly upregulated or downregulated | effects on cell viability when administered alone [8]: limited effects on cell viability

O=C(/C=C/c1ccccc1)NC(NC(=S)Nc1ccc(Cl)cc1)C(Cl)(Cl)Cl (stereo not drawn) [sal003]
synergy with small molecule inhibitors of MDM2 to elicit p53-dependent cell death [12]: synergize with small molecule inhibitors of MDM2 to elicit p53-dependent cell death

COc1ncc(-c2nc3c(n2C(C)C)[C@H](c2ccc(Cl)cc2)N(c2cc(Cl)cn(C)c2=O)C3=O)c(OC)n1 [siremadlin/HDM201, siremadlin]
effects on cell viability when administered alone [8]: limited effects on cell viability
